# Results taken from patent US8969310B2, “Potentiation of anticancer agents” (Angiochem Inc., priority 2005, dated 2015).
# Read-outs that look alike come from different tables or passages of the source.
# How the values were obtained:
# [1] = mouse, in vivo
# Description: (§1) Briefly, the right common carotid of ketamine/xylazine (140/8 mg/kg i.p.) anesthetized mice was exposed and ligated at the level of the bifurcation of the common carotid, rostral to the occipital artery. The common carotid was then catheterized rostrally with polyethylene tubing filled with heparin (25 U/ml) and mounted on a 26-gauge needle. […] Prior to the perfusion, the contralateral blood flow contribution was eliminated by severing heart ventricles. […] Mice were then decapitated to terminate perfusion and the right hemisphere was isolated on ice before being subjected to capillary depletion.
# (§2) After perfusion, the brain was further perfused for 60 sec with Ringer solution to wash the excess of radiolabeled molecules and then the right hemisphere was isolated on ice before being subjected to capillary depletion.
# [2] = In situ mouse brain perfusion; details: 5 min perfusion, [125I]-labelled, FIG. 7
# Description: as §1, §2
# LRP = molecular target: T1, LRP (Mus musculus, UniProt Q91ZX7); assay: [125I]-RAP uptake in MEF-1 (LRP+) and PEA-13 (LRP-) fibroblasts; assay type: cell-based
# T1 construct: endogenous in cells; host or cells: MEF-1 fibroblasts (LRP-positive), with PEA-13 fibroblasts (LRP-negative) as subtraction control
# Description: The LRP-dependent accumulation of [^125I]-RAP was calculated by substracted the results for the uptake obtained with PEA-13 cells from the results obtained with MEF-1;
# P-gp (human MDR1) = P-gp (human MDR1) (Homo sapiens, UniProt P08183); assay: Accumulation in MDCK-MDR1 cells with or without cyclosporin A (P-gp substrate test)
# Chain of P-gp (human MDR1) (P08183 whole entry): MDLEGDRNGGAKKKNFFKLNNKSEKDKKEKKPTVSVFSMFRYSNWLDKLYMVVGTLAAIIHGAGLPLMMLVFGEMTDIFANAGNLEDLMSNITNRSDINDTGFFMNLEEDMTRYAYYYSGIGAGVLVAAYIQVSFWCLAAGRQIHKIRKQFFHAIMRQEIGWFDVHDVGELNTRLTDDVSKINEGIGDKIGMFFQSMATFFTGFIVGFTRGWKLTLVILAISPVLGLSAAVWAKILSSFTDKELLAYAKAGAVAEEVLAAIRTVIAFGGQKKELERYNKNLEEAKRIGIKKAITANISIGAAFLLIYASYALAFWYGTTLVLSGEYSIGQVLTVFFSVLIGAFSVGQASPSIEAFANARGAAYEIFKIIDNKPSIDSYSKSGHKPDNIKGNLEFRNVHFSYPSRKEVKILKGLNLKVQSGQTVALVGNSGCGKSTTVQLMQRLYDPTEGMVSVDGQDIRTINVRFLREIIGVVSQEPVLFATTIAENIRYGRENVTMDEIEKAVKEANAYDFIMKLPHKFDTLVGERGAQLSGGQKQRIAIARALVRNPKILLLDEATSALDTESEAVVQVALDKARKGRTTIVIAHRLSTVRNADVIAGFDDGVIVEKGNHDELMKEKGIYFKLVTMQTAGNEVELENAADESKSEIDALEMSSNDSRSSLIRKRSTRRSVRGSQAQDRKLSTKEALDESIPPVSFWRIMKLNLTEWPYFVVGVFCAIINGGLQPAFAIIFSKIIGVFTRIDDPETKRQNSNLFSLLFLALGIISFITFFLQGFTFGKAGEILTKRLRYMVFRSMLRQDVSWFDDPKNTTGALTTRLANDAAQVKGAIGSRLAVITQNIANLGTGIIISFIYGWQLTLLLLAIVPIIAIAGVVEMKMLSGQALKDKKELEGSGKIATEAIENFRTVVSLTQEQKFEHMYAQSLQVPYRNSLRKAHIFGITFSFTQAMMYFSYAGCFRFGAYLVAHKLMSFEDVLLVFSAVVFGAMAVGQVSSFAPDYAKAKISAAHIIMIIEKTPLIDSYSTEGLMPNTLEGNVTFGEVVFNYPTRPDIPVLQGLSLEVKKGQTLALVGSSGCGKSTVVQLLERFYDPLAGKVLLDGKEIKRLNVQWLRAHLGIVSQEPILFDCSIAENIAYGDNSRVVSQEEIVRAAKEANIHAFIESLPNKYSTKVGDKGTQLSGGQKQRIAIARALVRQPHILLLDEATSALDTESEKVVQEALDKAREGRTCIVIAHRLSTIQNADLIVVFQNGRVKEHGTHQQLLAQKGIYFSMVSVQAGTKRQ
# Description: In order to determine whether the conjugates of the present invention were P-gp substrates or not, MDCK cells were stably transfected with human MDR1 (MDCK-MDR1) and were subsequently incubated with unconjugated-anticancer drug or with the conjugates of the present invention. […] After the incubation, cells were washed and accumulation of radioactivity inside the cells or intracellular fluorescence was quantified. The increased in the accumulation of these drugs is expressed in term of x-fold compared to their respective control measured in the absence of CsA. Thus, the control value for each drug was set to 1-fold.
# U-118 glioblastoma cells = assay: Cell proliferation assay ([3H]-thymidine incorporation), U-118; assay type: cell-based; details: read-out: IC50, effect on cell proliferation
# [3] = tested on: Calu-3 lung carcinoma cells; assay: Cell proliferation assay, Calu-3; assay type: cell-based; details: Homo sapiens, read-out: IC50, effect on cell proliferation
# [4] = tested on: MDA-MB-231 breast cancer cell line; assay: In vitro cytotoxicity, MDA-MB-231; assay type: cell-based
# [5] = tested on: BT-474 breast cancer cell line; assay: In vitro cytotoxicity, BT-474; assay type: cell-based
# [6] = tested on: NCI-H460 lung carcinoma cells; assay: Cell proliferation assay ([3H]-thymidine incorporation), NCI-H460; assay type: cell-based; details: for IC50: Homo sapiens
# [7] = tested on: A549 lung carcinoma cells; assay: Cell proliferation assay ([3H]-thymidine incorporation), A549; assay type: cell-based; details: Homo sapiens, read-out: IC50, effect on cell proliferation
# Description: For the in vitro cell proliferation assay, between 2.5 and 5×10^4 of U87 or A549 cells were seeded in a 24 well tissue culture microplate in a final volume of 1 ml of medium with 10% serum and incubated for 24 hours at 37° C. and 5% CO2. The medium was then replaced with serum-free medium and incubated overnight. The next morning the drug was freshly dissolved in dimethyl sulfoxide (DMSO) and the medium was replaced with complete medium containing the drug at different concentrations in triplicates. The final concentration of DMSO was 0.1%. The control used is a microplate well with cells and without drug. The cells were incubated for 48 to 72 hrs at 37° C. and 5% CO2. After the incubation, the medium was changed and replaced with 1 ml of complete medium containing [^3H]-thymidine (1 μCi/assay). The plate was incubated at 37° C. and 5% CO2 for 4 hrs. The medium was removed and the cells washed with PBS heated at 37° C. The cells were fixed with a mix of ethanol:acetic acid (3;1), then washed with water and precipitated 3 times with 10% of ice-cold TCA (trichloroacetic acid). […] The contents of each well was then transferred in a scintillation vial with 10 ml of scintillation cocktail and the activity was measured in CPM (count per minute) on a liquid scintillation counter Tri-Carb from Packard. […]
# [8] = tested on: NCI-H460 subcutaneous tumor; assay: Subcutaneous NCI-H460 tumor growth; assay type: in vivo, mice; details: i.v.
# Description: Briefly, mice received a subcutaneous injection of 2.5×10^6 human U87 glioma cells or NCI-H460 cells. […] Treatments were then administered twice a week until animals were sacrificed. Mice were monitored every day for clinical symptoms and weight loss. Tumor volume was estimated with a kaliper and the following equation (tumor volume=π/2×(length (mm)×width^2 (mm)).
# In the first subcutaneous tumor growth study, NCI-H460 cells were implanted in mice right flank (FIG. 22A).
# [9] = tested on: SK-HEP-1 hepatocarcinoma cells; assay: In vitro cytotoxicity, SK-HEP-1; assay type: cell-based, human
# [10] = Tissue distribution and pharmacokinetics after i.v. bolus (AUC0-4); assay type: in vivo, mice; details: equivalent to 5 mg/kg of Taxol
# Description: The unconjugated anticancer drug and the conjugates were injected intra-veinously (i.v.) in mice as a bolus. Tissues were collected at different times (0.25, 0.5, 1 and 4 hrs) and homogenized. […] Radioactivity associated with the tissues was therefore quantified. The area under the curve (AUC0-4) was estimated using the Prism software and was plotted for the different tissues (FIG. 10).
# U-87 glioblastoma cells = assay: Cell proliferation assay ([3H]-thymidine incorporation), U-87; assay type: cell-based, human; details: for IC50: Homo sapiens
# Description: For the in vitro cell proliferation assay, between 2.5 and 5×10^4 of U87 or A549 cells were seeded in a 24 well tissue culture microplate in a final volume of 1 ml of medium with 10% serum and incubated for 24 hours at 37° C. and 5% CO2. The medium was then replaced with serum-free medium and incubated overnight. The next morning the drug was freshly dissolved in dimethyl sulfoxide (DMSO) and the medium was replaced with complete medium containing the drug at different concentrations in triplicates. The final concentration of DMSO was 0.1%. The control used is a microplate well with cells and without drug. The cells were incubated for 48 to 72 hrs at 37° C. and 5% CO2. After the incubation, the medium was changed and replaced with 1 ml of complete medium containing [^3H]-thymidine (1 μCi/assay). The plate was incubated at 37° C. and 5% CO2 for 4 hrs. The medium was removed and the cells washed with PBS heated at 37° C. The cells were fixed with a mix of ethanol:acetic acid (3;1), then washed with water and precipitated 3 times with 10% of ice-cold TCA (trichloroacetic acid). Finally 500 μl of PCA (perchloric acid) were added to the wells and the microplates were heated for 30 min at 65° C. and 30 min at 75° C. The contents of each well was then transferred in a scintillation vial with 10 ml of scintillation cocktail and the activity was measured in CPM (count per minute) on a liquid scintillation counter Tri-Carb from Packard.
# The anti-proliferatice activity of the conjugate against cancer cells in vitro was further assessed.
# [11] = tested on: RBE4 endothelial cells from rat brain; assay: Cell proliferation assay, RBE4; assay type: cell-based; details: read-out: IC50, effect on cell proliferation
# [12] = comparator products; data based on rat GLP toxicity programs; cited from earlier work
# [13] = tested on: HCC1954 breast cancer cell line; assay: In vitro cytotoxicity, HCC1954; assay type: cell-based
# NCI-H460 cell-cycle = assay: NCI-H460 cell cycle measured by FACS; assay type: cell-based; details: NCI-H460, 24 hrs; Taxol 100 nM, TxlAn2 conjugate 30 nM
# [14] = tested on: MDA-MB-468 breast cancer cell line; assay: In vitro cytotoxicity, MDA-MB-468; assay type: cell-based
# [15] = Preliminary comparative toxicity in beagle dogs
# [16] = various aprotinin concentrations
compound,measurement,setting,value
C[C@@H](O)[C@H](N)C(=O)N[C@@H](Cc1ccccc1)C(=O)N[C@@H](Cc1ccccc1)C(=O)N[C@@H](Cc1ccc(O)cc1)C(=O)NCC(=O)NCC(=O)N[C@@H](CO)C(=O)N[C@@H](CCCNC(=N)N)C(=O)NCC(=O)N[C@@H](CCCCN)C(=O)N[C@@H](CCCNC(=N)N)C(=O)N[C@@H](CC(N)=O)C(=O)N[C@@H](CC(N)=O)C(=O)N[C@@H](Cc1ccccc1)C(=O)N[C@@H](CCCCN)C(=O)N[C@H](C(=O)N[C@@H](CCC(=O)O)C(=O)N[C@@H](CCC(=O)O)C(=O)N[C@@H](Cc1ccc(O)cc1)C(=O)O)[C@@H](C)O [Angiopep-2],Accumulation into brain parenchyma compared with vascular marker [14C]-inulin,[1],higher than that of the vascular marker
aprotinin,Initial brain uptake (transport rate) compared with transferrin,[2],highest initial transport rate than transferrin
same,LRP-dependent accumulation of [125I]-RAP (MEF-1 minus PEA-13),"LRP; excess, 25 μM, FIG. 18",affect the LRP-dependent accumulation of [^125I]-RAP
same,Uptake of [125I]-RAP in LRP-negative cells (PEA-13),LRP; [16],almost unaffected
same,Uptake of [125I]-RAP in LRP-positive cells (MEF-1),LRP; [16],inhibited the transport of [^125I]-RAP in positive LRP cells in a dose-dependent manner
CC[C@]1(O)C[C@@H]2CN(CCc3c([nH]c4ccccc34)[C@@](C(=O)OC)(c3cc4c(cc3OC)N(C)[C@H]3[C@@](O)(C(=O)OC)[C@H](OC(C)=O)[C@]5(CC)C=CCN6CC[C@]43[C@@H]65)C2)C1 [vinblastine],P-gp substrate or not,P-gp (human MDR1); MDCK-MDR1,are P-gp substrates
rhodamine,"Increase in accumulation in the presence of CsA, x-fold of control without CsA","P-gp (human MDR1); MDCK-MDR1, 1 hr 37° C., 10 μM cyclosporin A",7.5 fold
same,P-gp substrate or not,"P-gp (human MDR1); MDCK-MDR1, with or without CsA",are P-gp substrates
CC(=O)O[C@H]1C(=O)[C@@]2(C)[C@H]([C@H](OC(=O)c3ccccc3)[C@]3(O)C[C@H](OC(=O)[C@H](O)[C@@H](NC(=O)c4ccccc4)c4ccccc4)C(C)=C1C3(C)C)[C@]1(OC(C)=O)CO[C@@H]1C[C@@H]2O [Taxol],IC50,U-118 glioblastoma cells,7.2 nM
same,P-gp substrate or not,P-gp (human MDR1); MDCK-MDR1,are P-gp substrates
same,IC50,[3],17.2 nM
same,Residual survival % Mean,[4],45.62%
same,IC50,[4]; Homo sapiens,17.6 nM
same,Residual survival % Mean,[5],52.24%
same,IC50,"[5]; Homo sapiens, Table 3B",62.9 nM
same,IC50,"[6]; NCI-H460, read-out: IC50, effect on cell proliferation",9.3 nM
same,IC50,"[6]; NCI-H460, Table 3B, read-out: IC50 (nM) Mean",6.61 nM
same,Residual survival % Mean,[6]; NCI-H460,24.98%
same,IC50,[7],3.6 nM
same,Tumor growth Δ,[8]; Day 0 to Day 11,371 ± 58 mm^3
same,T/C,[8]; Day 11,62%
same,"Tumor volume, Day 0","[8]; baseline, equivalent of 10 mg/kg of Taxol",112 ± 12 mm^3
same,"Tumor volume, Day 11","[8]; equivalent of 10 mg/kg of Taxol, twice a week",483 ± 63 mm^3
same,Residual survival % Mean,[9],55.18%
same,IC50,"[9]; Homo sapiens, SK-HEP1",8.84 nM
same,AUC 0-4,[10]; Brain,0.07 μg/g of tissue
same,AUC 0-4,[10]; Eye,0.57 μg/g of tissue
same,AUC 0-4,[10]; Heart,2.5 μg/g of tissue
same,AUC 0-4,[10]; Kidney,8.0 μg/g of tissue
same,AUC 0-4,[10]; Liver,22 μg/g of tissue
same,AUC 0-4,[10]; Lung,1.1 μg/g of tissue
same,IC50,"U-87 glioblastoma cells; 72 h, read-out: IC50, proliferation of glioblastoma cells (U-87)",~10 nM
same,IC50,"U-87 glioblastoma cells; read-out: IC50, effect on cell proliferation",9.5 nM
same,IC50,"U-87 glioblastoma cells; U-87 MG, Table 3B, read-out: IC50 (nM) Mean",12.9 nM
same,Residual survival % Mean,U-87 glioblastoma cells; U-87 MG,40.35%
same,IC50,[11],137 nM
same,MTD,[12],8 mg/kg
same,Residual survival % Mean,[13],48.82%
same,IC50,[13]; Homo sapiens,6.12 nM
same,Effect on cell cycle,NCI-H460 cell-cycle,induce a blockade of NCI-H460 cell in G2/M phase
same,Residual survival % Mean,[14],54.26%
same,IC50,[14]; Homo sapiens,13.5 nM
same,Platelets,[15]; 4-days post-treatment,200 ×109 cells/L
same,Reticulocytes,[15]; 4-days post-treatment,0.011 ×1012 cells/L
same,White Blood Cells,[15]; 4-days post-treatment,4.3 ×109 cells/L
same,Platelets,[15]; 8-days post treatment,340 ×109 cells/L
same,Reticulocytes,[15]; 8-days post treatment,0.11 ×1012 cells/L
same,White Blood Cells,[15]; 8-days post treatment,8.7 ×109 cells/L
same,Platelets,[15]; Pre-treatment,250 ×109 cells/L
same,Reticulocytes,[15]; Pre-treatment,0.031 ×1012 cells/L
same,White Blood Cells,[15]; Pre-treatment,9.7 ×109 cells/L
